Results on 35 molecules are retold here after US8541588B2, “Sulfonamide derivatives” (Pfizer Limited, priority 2009, dated 2013).

The target in the first experiment is T1, Nav1.7 (or SCN9A) channel; HEK cells stably transfected with hSCN9A (Homo sapiens, UniProt Q15858).
T1 construct: expressed in transfected cells
T1 sequence (Q15858 whole entry): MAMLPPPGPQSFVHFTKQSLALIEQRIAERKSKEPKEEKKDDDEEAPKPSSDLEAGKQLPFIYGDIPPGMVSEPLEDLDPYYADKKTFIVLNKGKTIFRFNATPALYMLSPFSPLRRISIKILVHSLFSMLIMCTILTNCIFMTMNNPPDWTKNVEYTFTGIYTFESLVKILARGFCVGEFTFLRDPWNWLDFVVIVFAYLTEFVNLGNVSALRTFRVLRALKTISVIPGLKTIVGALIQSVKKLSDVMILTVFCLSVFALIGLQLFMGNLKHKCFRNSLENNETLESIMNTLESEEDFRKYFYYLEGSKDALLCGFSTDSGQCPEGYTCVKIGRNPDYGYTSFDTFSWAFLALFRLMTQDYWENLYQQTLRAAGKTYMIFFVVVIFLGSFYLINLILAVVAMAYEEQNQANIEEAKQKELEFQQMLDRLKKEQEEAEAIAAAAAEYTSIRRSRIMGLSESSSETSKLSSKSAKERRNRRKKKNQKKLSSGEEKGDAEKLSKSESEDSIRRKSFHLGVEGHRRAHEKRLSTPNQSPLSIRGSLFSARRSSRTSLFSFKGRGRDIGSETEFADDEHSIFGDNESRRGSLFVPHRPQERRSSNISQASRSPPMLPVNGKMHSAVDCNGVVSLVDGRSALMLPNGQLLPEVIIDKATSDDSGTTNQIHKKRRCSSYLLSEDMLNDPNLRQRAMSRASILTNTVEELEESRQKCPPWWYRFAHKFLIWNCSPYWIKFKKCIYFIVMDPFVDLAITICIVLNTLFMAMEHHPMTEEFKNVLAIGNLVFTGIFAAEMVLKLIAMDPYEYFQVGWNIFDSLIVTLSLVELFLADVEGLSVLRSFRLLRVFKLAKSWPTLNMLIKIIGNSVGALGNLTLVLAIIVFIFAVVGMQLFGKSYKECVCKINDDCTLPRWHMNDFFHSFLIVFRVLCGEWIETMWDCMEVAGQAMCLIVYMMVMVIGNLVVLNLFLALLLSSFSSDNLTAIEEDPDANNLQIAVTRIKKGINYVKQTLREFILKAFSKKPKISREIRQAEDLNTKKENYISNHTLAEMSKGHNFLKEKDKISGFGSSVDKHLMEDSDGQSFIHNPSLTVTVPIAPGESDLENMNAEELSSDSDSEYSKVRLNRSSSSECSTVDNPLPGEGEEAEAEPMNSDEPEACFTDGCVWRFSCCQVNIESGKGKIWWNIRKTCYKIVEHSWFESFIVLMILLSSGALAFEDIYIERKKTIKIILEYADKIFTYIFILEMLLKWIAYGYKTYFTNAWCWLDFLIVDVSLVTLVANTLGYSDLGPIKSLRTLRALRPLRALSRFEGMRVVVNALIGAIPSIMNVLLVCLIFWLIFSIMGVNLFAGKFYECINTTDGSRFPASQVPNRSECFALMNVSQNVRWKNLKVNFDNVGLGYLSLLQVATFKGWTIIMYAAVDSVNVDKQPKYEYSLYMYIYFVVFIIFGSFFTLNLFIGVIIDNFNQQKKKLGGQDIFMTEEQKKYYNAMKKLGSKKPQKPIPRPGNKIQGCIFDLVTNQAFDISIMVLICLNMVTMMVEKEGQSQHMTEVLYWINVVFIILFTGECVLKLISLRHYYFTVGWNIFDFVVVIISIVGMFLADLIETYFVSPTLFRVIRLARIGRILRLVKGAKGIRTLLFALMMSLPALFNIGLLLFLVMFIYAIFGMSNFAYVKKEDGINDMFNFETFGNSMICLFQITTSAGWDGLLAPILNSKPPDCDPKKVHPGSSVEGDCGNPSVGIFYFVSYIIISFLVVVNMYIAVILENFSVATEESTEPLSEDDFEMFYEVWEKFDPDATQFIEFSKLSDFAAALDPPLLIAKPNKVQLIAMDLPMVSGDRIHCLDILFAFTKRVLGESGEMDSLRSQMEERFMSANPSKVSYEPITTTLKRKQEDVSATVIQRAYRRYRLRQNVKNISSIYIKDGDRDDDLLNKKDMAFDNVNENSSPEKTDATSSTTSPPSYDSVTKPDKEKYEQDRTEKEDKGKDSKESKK
In words: Nav1.7 block, PatchXpress 7000 automated whole-cell voltage clamp, estimated IC50 (EIC50). The experiment is classed as cell-based. Conditions: PatchXpress platform; hSCN9A HEK cells held at V1/2 of inactivation; estimated IC50.
As to `O=S(=O)(Nc1nccs1)c1ccc(Oc2ccc(F)cc2-c2ccnn2CC(F)(F)F)c(F)c1` [Example 225, 3-fluoro-4-(4-fluoro-2-(1-(2,2,2-trifluoroethyl)-1H-pyrazol-5-yl)phenoxy)-N-(thiazol-2-yl)benzenesulfonamide], the IC50 (as a rule, the concentration needed to halve the response being measured) was 430 nM.
`Cc1cc(S(=O)(=O)Nc2ncns2)ccc1Oc1ccn(Cc2ccc(Cl)cc2)n1` [Example 257, 4-{[1-(4-chlorobenzyl)-1H-pyrazol-3-yl]oxy}-3-methyl-N-1,2,4-thiadiazol-5-ylbenzenesulfonamide]: the IC50 is 2200 nM.
Regarding `N#Cc1cc(S(=O)(=O)Nc2nccs2)ccc1Oc1ccc(F)cc1-c1ccc(F)c(F)c1` [Example 158, 3-cyano-N-1,3-thiazol-2-yl-4-[(3′,4′,5-trifluorobiphenyl-2-yl)oxy]benzenesulfonamide], the IC50 was 310 nM.
The same measure, in the same setting: as for `COC(=O)c1ccc(Oc2ccc(S(=O)(=O)Nc3ncns3)cc2C#N)c(-c2ccnn2C)c1` [Example 30, methyl 4-(4-(N-1,2,4-thiadiazol-5-ylsulfamoyl)-2-cyanophenoxy)-3-(1-methyl-1H-pyrazol-5-yl)benzoate], the figure is 300 nM.
Consider `CCOC(=O)Cn1nc(Cc2ccc(Cl)cc2)cc1Oc1ccc(S(=O)(=O)Nc2ncns2)cc1C#N` [Example 92, 3-(4-chloro-benzyl)-5-{2-cyano-4-(1,2,4-thiadiazol-5-ylsulfamoyl)-phenoxy}-pyrazol-1-yl-acetic acid ethyl ester], for which the IC50 was 1810 nM.
For `Cc1cc(Oc2ccccc2-c2ccccc2)ccc1S(=O)(=O)Nc1ncns1` [Example 261, 4-(biphenyl-2-yloxy)-2-methyl-N-1,2,4-thiadiazol-5-ylbenzenesulfonamide], the IC50 is 470 nM.

The same experiment, now with this note: estimated IC50; hSCN9A HEK cells, PatchXpress platform; Examples 283-814.
In the case of `N#Cc1cc(S(=O)(=O)Nc2nccs2)ccc1Oc1ccc(Cl)cc1-n1nccn1` [Example 321, 4-[4-chloro-2-(2H-1,2,3-triazol-2-yl)phenoxy]-3-cyano-N-1,3-thiazol-2-ylbenzenesulfonamide], the IC50 is 770 nM.
Take `Cc1cnsc1-c1ccccc1Oc1ccc(S(=O)(=O)Nc2ccc(F)cn2)cc1C#N` [Example 577, 3-cyano-N-(5-fluoropyridin-2-yl)-4-[2-(4-methylisothiazol-5-yl)phenoxy]benzenesulfonamide]: the IC50 is 11000 nM.
`O=S(=O)(Nc1ncns1)c1ccc(Oc2ccc(Cl)cc2-c2ccn[nH]2)c(Cl)c1` [Example 475, 3-chloro-4-[4-chloro-2-(1H-pyrazol-5-yl)phenoxy]-N-1,2,4-thiadiazol-5-ylbenzenesulfonamide]: the half-maximal inhibitory concentration (IC50) is 7.5 nM.
As to `O=S(=O)(Nc1ncns1)c1ccc(Oc2ccc(Cl)cc2C2CCNCC2)c(Cl)c1` [Example 477, 3-chloro-4-(4-chloro-2-piperidin-4-ylphenoxy)-N-1,2,4-thiadiazol-5-ylbenzenesulfonamide], the IC50 was 16 nM.
Same read-out and setting: the same measure for `N#Cc1ccnc(NS(=O)(=O)c2ccc(Oc3ccccc3-c3ccccc3)c(C#N)c2)c1` [Example 422, 4-(biphenyl-2-yloxy)-3-cyano-N-(4-cyanopyridin-2-yl)benzenesulfonamide]: over 1000 nM; for `N#Cc1cccc(-c2cc(C(F)(F)F)ccc2Oc2ccc(S(=O)(=O)Nc3ncns3)cc2C#N)c1` [Example 509, 3-cyano-4-{[3′-cyano-5-(trifluoromethyl)biphenyl-2-yl]oxy}-N-1,2,4-thiadiazol-5-ylbenzenesulfonamide]: 31 nM.
Regarding `Cn1nccc1-c1ccc(C#N)cc1Oc1cc(F)c(S(=O)(=O)Nc2ncc(Cl)s2)cc1F` [Example 615, N-(5-chloro-1,3-thiazol-2-yl)-4-[5-cyano-2-(1-methyl-1H-pyrazol-5-yl)phenoxy]-2,5-difluorobenzenesulfonamide], the half-maximal inhibitory concentration (IC50) is 2000 nM.
`O=S(=O)(Nc1cscn1)c1cc(Cl)c(Oc2ccc(Cl)cc2-c2cn[nH]c2)cc1F` [Example 661, 5-chloro-4-[4-chloro-2-(1H-pyrazol-4-yl)phenoxy]-2-fluoro-N-1,3-thiazol-4-ylbenzenesulfonamide]: the IC50 is 77 nM.
As for `N#Cc1cc(S(=O)(=O)Nc2cscn2)ccc1Oc1ccc(OC(F)(F)F)cc1-c1cn[nH]c1` [Example 599, 3-cyano-4-[2-(1H-pyrazol-4-yl)-4-(trifluoromethoxy)phenoxy]-N-1,3-thiazol-4-ylbenzenesulfonamide], the IC50 was 300 nM.
Same read-out and setting: as for `COC(=O)c1cc(Oc2ccc(S(=O)(=O)Nc3nccs3)cc2C#N)ccc1-n1cc(Cl)cn1` [Example 495, methyl 2-(4-chloro-1H-pyrazol-1-yl)-5-{2-cyano-4-[(1,3-thiazol-2-ylamino)sulfonyl]phenoxy}benzoate], the figure is over 1000 nM; as for `N#Cc1cc(S(=O)(=O)Nc2nccs2)ccc1Oc1ccc(Cl)cc1CN1CCOCC1` [Example 493, 4-[4-chloro-2-(morpholin-4-ylmethyl)phenoxy]-3-cyano-N-1,3-thiazol-2-ylbenzenesulfonamide], 580 nM; as for `CCn1nc(C(F)(F)F)cc1-c1ccc(Oc2ccc(S(=O)(=O)Nc3nccs3)cc2F)cc1` [Example 408, 4-{4-[1-ethyl-3-(trifluoromethyl)-1H-pyrazol-5-yl]phenoxy}-3-fluoro-N-1,3-thiazol-2-ylbenzenesulfonamide], 300 nM.
For `N#Cc1cc(S(=O)(=O)Nc2nccs2)ccc1Oc1ccc(N2CCCC2=O)cc1` [Example 488, 3-cyano-4-[4-(2-oxopyrrolidin-1-yl)phenoxy]-N-1,3-thiazol-2-ylbenzenesulfonamide], the IC50 was over 1000 nM.
In the case of `N#Cc1cc(S(=O)(=O)Nc2nccs2)ccc1Oc1cccc(-n2nc(C(F)F)cc2CO)c1` [Example 390, 3-cyano-4-{3-[3-(difluoromethyl)-5-(hydroxymethyl)-1H-pyrazol-1-yl]phenoxy}-N-1,3-thiazol-2-ylbenzenesulfonamide], the IC50 was 300 nM.
Turning to `N#Cc1cc(S(=O)(=O)Nc2nccs2)ccc1Oc1ccc(-c2cn(CC(F)(F)F)nc2N)cc1` [Example 482, 4-{4-[3-amino-1-(2,2,2-trifluoroethyl)-1H-pyrazol-4-yl]phenoxy}-3-cyano-N-1,3-thiazol-2-ylbenzenesulfonamide], the IC50 was over 1000 nM.
Still for that read-out and setting: the same measure for `N#Cc1cc(S(=O)(=O)Nc2nccs2)ccc1Oc1cnn(-c2cccc(C(F)(F)F)c2)c1` [Example 334, 3-cyano-N-1,3-thiazol-2-yl-4-({1-[3-(trifluoromethyl)phenyl]-1H-pyrazol-4-yl}oxy)benzenesulfonamide]: 3400 nM; for `O=S(=O)(Nc1nccs1)c1ccc(Oc2ccc(F)cc2-c2cn[nH]c2)c(F)c1` [Example 686, 3-fluoro-4-[4-fluoro-2-(1H-pyrazol-4-yl)phenoxy]-N-1,3-thiazol-2-ylbenzenesulfonamide]: 330 nM.
Turning to `Cn1nccc1-c1cc(F)ccc1Oc1cc(F)c(S(=O)(=O)Nc2cscn2)cc1Br` [Example 625, 5-bromo-2-fluoro-4-[4-fluoro-2-(1-methyl-1H-pyrazol-5-yl)phenoxy]-N-1,3-thiazol-4-ylbenzenesulfonamide], the IC50 was 18 nM.
Regarding `Cn1nccc1-c1cc(Cl)ccc1Oc1ccc(S(=O)(=O)Nc2ccc(F)cn2)cc1Cl` [Example 745, 3-chloro-4-[4-chloro-2-(1-methyl-1H-pyrazol-5-yl)phenoxy]-N-(5-fluoropyridin-2-yl)benzenesulfonamide], the IC50 was 120 nM.
As to “tert-Butyl [(5-chloro-2,4-difluorophenyl)sulfonyl](5-cyano-1,3-thiazol-4-yl)carbamate [Example 516]”, the IC50 was 10000 nM.
Regarding `N#Cc1cc(S(=O)(=O)Nc2nccs2)ccc1Oc1cccc(-c2ccccc2)c1` [Example 778, 4-(biphenyl-3-yloxy)-3-cyano-N-1,3-thiazol-2-ylbenzenesulfonamide], the IC50 was 470 nM.
Turning to `N#Cc1cc(S(=O)(=O)Nc2nccs2)ccc1Oc1cccc(-c2cc(C(F)(F)F)nn2CCO)c1` [Example 549, 3-cyano-4-{3-[1-(2-hydroxyethyl)-3-(trifluoromethyl)-1H-pyrazol-5-yl]phenoxy}-N-1,3-thiazol-2-ylbenzenesulfonamide], the IC50 is 160 nM.

The experiment is the same for the next values; noted with them: estimated IC50; hSCN9A HEK cells, PatchXpress platform; Examples 815-1040.
Regarding `O=S(=O)(Nc1cccnn1)c1ccc(Oc2ccc(Cl)cc2-c2ccnnc2)c(Cl)c1` [Example 869, 3-chloro-4-(4-chloro-2-pyridazin-4-ylphenoxy)-N-pyridazin-3-ylbenzenesulfonamide], the IC50 was 540 nM.
Take `Cc1cc(S(=O)(=O)Nc2nncs2)c(F)cc1Oc1ccc(Cl)cc1-c1ccnnc1` [Example 943, 4-(4-chloro-2-pyridazin-4-ylphenoxy)-2-fluoro-5-methyl-N-1,3,4-thiadiazol-2-ylbenzenesulfonamide]: the IC50 was 77 nM.
As for `Cc1cc(S(=O)(=O)Nc2nncs2)c(F)cc1Oc1ccc(OC(F)(F)F)cc1-c1ccnnc1` [Example 1037, 2-fluoro-5-methyl-4-[2-pyridazin-4-yl-4-(trifluoromethoxy)phenoxy]-N-1,3,4-thiadiazol-2-ylbenzenesulfonamide], the IC50 is 12 nM.
As for `Cn1nccc1-c1cc(Cl)ccc1Oc1ccc(S(=O)(=O)Nc2ncns2)cn1` [Example 950, 6-[4-chloro-2-(1-methyl-1H-pyrazol-5-yl)phenoxy]-N-1,2,4-thiadiazol-5-ylpyridine-3-sulfonamide], the IC50 is 2700 nM.
`N#Cc1cc(S(=O)(=O)Nc2cscn2)ccc1Oc1ccc(Cl)cc1-c1ccnc(N2CCNCC2)c1` [Example 834, 4-[4-chloro-2-(2-piperazin-1-ylpyridin-4-yl)phenoxy]-3-cyano-N-1,3-thiazol-4-ylbenzenesulfonamide]: the IC50 was 3.9 nM.
`O=S(=O)(Nc1ncns1)c1ccc(Oc2ccc(Cl)cc2C2CCOCC2)c(F)c1` [Example 825, 4-[4-chloro-2-(tetrahydro-2H-pyran-4-yl)phenoxy]-3-fluoro-N-1,2,4-thiadiazol-5-ylbenzenesulfonamide]: the IC50 was 190 nM.
Still for that read-out and setting: the same measure for `Cc1cnncc1-c1cc(Cl)ccc1Oc1ccc(S(=O)(=O)Nc2ncns2)cc1C#N` [Example 914, 4-[4-chloro-2-(5-methylpyridazin-4-yl)phenoxy]-3-cyano-N-1,2,4-thiadiazol-5-ylbenzenesulfonamide]: 180 nM.
